A short description of the series: MTT cell viability assay, compounds at 5, 1 and 0.2 μM, 48 hours. The series is classed as cell-based. Particulars: human, A549 tumor cells. The procedure: MTT assay is used to determine cell proliferation, percent of viable cells, and cytotoxicity. MTT (3-[4,5-dimethylthiazol-2-yl]2,5-diphenyltetrazolium bromide) is a yellow dye, which can be absorbed by the living cells and be reduced to purplish blue formazan crystals by succinate tetrazolium reductase in mitochondria. Formazan formation can therefore be used to assess and determine the survival rate of cells.
Tumor cells (A549) were plated at 2500 cells/well of a 96-well plate in complete growth medium (DMEM+10% FBS, antibiotic/antimycotic, fungizone, L-glutamine, sodium pyruvate, and non-essential amino acids). The cells were allowed to grow overnight. After cell proliferation, the cells were washed and re-suspended in fresh culture medium and placed in 96 well plates.
To each of the 96 well plates containing A549 and a control, 5, 1, and 0.2 μM of the exemplary compounds 1-200 were add. The 96 well plates were incubated for 48 hours. Cell viability was measured by adding MTT (Sigma) at 5 mg/ml for 4 h to the cells and then removing the medium and resuspending each well in 50 μl DMSO to solubilize the crystals. The 96-well plates were read on a plate-scanning spectrophotometer (BioTek) at an absorbance of […]. The survival rate of cells was calculated based on the measurement of absorption at the 570 nm wavelength by enzyme immunoassay analyzer.

The structures appear in SMILES notation.

This is an account of results in US9212151B2, “Heterocyclic compounds useful for kinase inhibition” (Amitech Therapeutic Solutions, Inc., priority 2010, dated 2015).

`NS(=O)(=O)c1cnccc1Oc1ccc(-c2nnc(Nc3cccc(C(F)(F)F)c3)o2)cc1` [Compound 31] displayed a viability at 48 h, 0.2 µM of more than 70%; a viability at 48 h, 1 µM of more than 70%; a viability at 48 h, 5 µM of more than 70%.

As for `FC(F)(F)c1cccc(Nc2nnc(-c3ccc(Oc4ncnc5[nH]ccc45)cc3)o2)c1` [Compound 32], the viability at 48 h, 0.2 µM was more than 70%; the viability at 48 h, 1 µM is more than 70%; the viability at 48 h, 5 µM was more than 70%.

With `COc1ccc2c(Oc3ccc(-c4nnc(Nc5cccc(C(F)(F)F)c5)o4)cc3)ccnc2c1` [Compound 33], the viability at 48 h, 0.2 µM was more than 70%; the viability at 48 h, 1 µM was more than 70%; the viability at 48 h, 5 µM was more than 70%.

In turn, `FC(F)(F)c1cccc(Nc2nnc(-c3ccc(Oc4ccnc5ccccc45)cc3)o2)c1` [Compound 34] returned a viability at 48 h, 0.2 µM of more than 70%; a viability at 48 h, 1 µM of more than 70%; a viability at 48 h, 5 µM of more than 70%.

With `Nc1cc(Oc2cccc(-c3nnc(Nc4cccc(C(F)(F)F)c4)o3)c2)nc(N)n1` [Compound 35], the viability at 48 h, 0.2 µM was more than 70%; the viability at 48 h, 1 µM was more than 70%; the viability at 48 h, 5 µM is more than 70%.

For the molecule `CSc1nc(N)cc(Oc2cccc(-c3nnc(Nc4cccc(C(F)(F)F)c4)o3)c2)n1` [Compound 36], the viability at 48 h, 0.2 µM is more than 70%; the viability at 48 h, 1 µM was more than 70%; the viability at 48 h, 5 µM is more than 70%.

As for `FC(F)(F)c1cccc(Nc2nnc(-c3cccc(Oc4ccncc4)c3)o2)c1` [Compound 37], the viability at 48 h, 0.2 µM was more than 70%; the viability at 48 h, 1 µM was more than 70%; the viability at 48 h, 5 µM was more than 70%.

In the case of `Nc1cc(Oc2cccc(-c3nnc(Nc4cccc(C(F)(F)F)c4)o3)c2)ccn1` [Compound 38], the viability at 48 h, 0.2 µM is more than 70%; the viability at 48 h, 1 µM is more than 70%; the viability at 48 h, 5 µM was more than 70%.

The molecule `NS(=O)(=O)c1cnccc1Oc1cccc(-c2nnc(Nc3cccc(C(F)(F)F)c3)o2)c1` [Compound 39] gave a viability at 48 h, 0.2 µM of more than 70%; a viability at 48 h, 1 µM of more than 70%; a viability at 48 h, 5 µM of more than 70%.

As for `FC(F)(F)c1cccc(Nc2nnc(-c3cccc(Oc4ccncc4C(F)(F)F)c3)o2)c1` [Compound 40], the viability at 48 h, 0.2 µM was more than 70%; the viability at 48 h, 1 µM was more than 70%; the viability at 48 h, 5 µM was more than 70%.

For `COc1ccc2c(Oc3cccc(-c4nnc(Nc5cccc(C(F)(F)F)c5)o4)c3)ccnc2c1` [Compound 41], the viability at 48 h, 0.2 µM is more than 70%; the viability at 48 h, 1 µM was more than 70%; the viability at 48 h, 5 µM is more than 70%.

`FC(F)(F)c1cccc(Nc2nnc(-c3cccc(Oc4ccnc5ccccc45)c3)o2)c1` [Compound 42]: the viability at 48 h, 0.2 µM was more than 70%; the viability at 48 h, 1 µM is more than 70%; the viability at 48 h, 5 µM was more than 70%.

Consider `Nc1cc(Oc2ccc(-c3nnc(Nc4cccc(C(F)(F)F)c4)s3)cc2)nc(N)n1` [Compound 43], for which the viability at 48 h, 0.2 µM is more than 70%; the viability at 48 h, 1 µM is more than 70%; the viability at 48 h, 5 µM was more than 70%.

In turn, `CSc1nc(N)cc(Oc2ccc(-c3nnc(Nc4cccc(C(F)(F)F)c4)s3)cc2)n1` [Compound 44] came in with a viability at 48 h, 0.2 µM of more than 70%; a viability at 48 h, 1 µM of more than 70%; a viability at 48 h, 5 µM of more than 70%.

Regarding `FC(F)(F)c1cccc(Nc2nnc(-c3ccc(Oc4ncnc5[nH]ccc45)cc3)s2)c1` [Compound 45], the viability at 48 h, 0.2 µM was more than 70%; the viability at 48 h, 1 µM fell in the range of 50 to 70%; the viability at 48 h, 5 µM was less than 50%.

Regarding `COc1ccc2c(Oc3ccc(-c4nnc(Nc5cccc(C(F)(F)F)c5)s4)cc3)ccnc2c1` [Compound 46], the viability at 48 h, 0.2 µM is more than 70%; the viability at 48 h, 1 µM is more than 70%; the viability at 48 h, 5 µM was less than 50%.

`FC(F)(F)c1cccc(Nc2nnc(-c3ccc(Oc4ccnc5ccccc45)cc3)s2)c1` [Compound 47] displayed a viability at 48 h, 0.2 µM of more than 70%; a viability at 48 h, 1 µM of more than 70%; a viability at 48 h, 5 µM of more than 70%.
